From ChEMBL document CHEMBL1152465, “Comparative evaluation of the inhibitory activities of a series of pyrimidinedione congeners that inhibit human immunodeficiency virus types 1 and 2” (Antimicrob Agents Chemother, 2008)
Calls of active or inactive are those of the source.

What was measured:
[1] = tested on: Human immunodeficiency virus 1; assay: Antiviral activity against HIV1 infected in human HeLa cells expressing CD4-LTR assessed as inhibition of viral entry-related beta galactosidase expression treated for 2 hrs followed by drug wash out measured after 48 hrs by MAGI assay; format: functional, organism-based; conditions: Human immunodeficiency virus 1, HeLa
[2] = Cytotoxicity against human HeLa cells expressing CD4-LTR by XTT assay; format: cell-based; conditions: read-out: TC50 (the source's name)
[3] = tested on: Human immunodeficiency virus 1; assay: Antiviral activity against HIV1 RF infected in human CEM-SS cells assessed as inhibition of virus-induced cytopathic effect by XTT assay; format: functional, organism-based; conditions: Human immunodeficiency virus 1, RF
[4] = Cytotoxicity against human CEM-SS cells by XTT assay; format: cell-based; conditions: read-out: TC50 (the source's name)
[5] = Therapeutic index, ratio of TC50 human HeLa cells expressing CD4-LTR to EC50 for HIV1 entry inhibition in human HeLa cells expressing CD4-LTR; format: cell-based; conditions: read-out: TI
[6] = tested on: Human immunodeficiency virus 2; assay: Antiviral activity against HIV2 assessed as inhibition of viral single round replication at early time point; format: functional, organism-based
[7] = molecular target: Human immunodeficiency virus type 1 reverse transcriptase (Human immunodeficiency virus 1, UniProt Q72547, K103N); assay: Inhibition of HIV1 reverse transcriptase K103N mutant assessed as 32P-labeled GMP incorporation into nascent DNA strand
[8] = tested on: Human immunodeficiency virus 2; assay: Antiviral activity against HIV2 assessed as inhibition of viral replication treated at time points after viral entry into host cells; format: functional, organism-based
[9] = Therapeutic index, ratio of TC50 for human CEM-SS cells to EC50 for HIV1 RF infected in human CEM-SS cells; format: cell-based; conditions: read-out: TI
[10] = tested on: Human immunodeficiency virus 2; assay: Inhibition of HIV2 reverse transcriptase
[11] = tested on: Human immunodeficiency virus 1; assay: Antiviral activity against HIV1 infected in human CEM-SS cells assessed as inhibition of viral replication and virus-induced cytopathic effect by dose-response curve analysis; format: functional; conditions: Human immunodeficiency virus 1, CEM-SS
[12] = tested on: Human immunodeficiency virus 2; assay: Inhibition of HIV2 reverse transcriptase assessed as 32P-labeled GMP incorporation into nascent DNA strand at highest concentration
[13] = tested on: Human immunodeficiency virus 2; assay: Antiviral activity against HIV2 ROD infected in human CEM-SS cells assessed as inhibition of virus-induced cytopathic effect by XTT assay; format: functional, organism-based, ISOLATE ROD
[14] = molecular target: Human immunodeficiency virus type 1 reverse transcriptase (Human immunodeficiency virus 1, UniProt Q72547); assay: Inhibition of wild type HIV1 reverse transcriptase assessed as 32P-labeled GMP incorporation into nascent DNA strand
[15] = Therapeutic index, ratio of TC50 for human CEM-SS cells to EC50 for HIV2 ROD infected in human CEM-SS cells; format: cell-based; conditions: for selectivity ratio: CEM-SS cells, read-out: TI; for TI: cem-ss
[16] = Human immunodeficiency virus 2, ISOLATE ROD, CEM-SS, read-out: EC50

Compound	EC50 [1] [µM]	CC50 [2] [µM]	EC50 [3] [µM]	CC50 [4] [µM]	selectivity ratio [5]	Activity [6]	IC50 [7] [µM]	Activity [8]	selectivity ratio [9]	Activity [10]	EC99 [11] [µM]	Activity [12]	EC50 [13, 16] [µM]	IC50 [14] [µM]	selectivity ratio [15]	EC50 ([13]; cem-ss)	TI [15]
Cc1cc(C)cc(Sc2c(C(C)C)c(=O)[nH]c(=O)n2CCC2C=CCC2)c1 (stereo not given)	0.009	31.9	0.021	25.8	3650	Active	> 260	inactive	1850	inactive	1	inactive	4.8	0.246	5.4		
Cc1cc(C)cc(Oc2c(C(C)C)c(=O)[nH]c(=O)n2CC2CC=CC2)c1	0.09	200	0.015	200	2340	Active	1.9	inactive	12900	inactive	1	inactive	18.2	0.256	11		
CCc1c(Sc2cc(C)cc(C)c2)n(CCC2CC=CC2)c(=O)[nH]c1=O	0.09	135	0.0241	19.5	1460	Active	141	inactive	1030	inactive	1	inactive	1.7	0.179	11.4		
CCc1c(Sc2cc(C)cc(C)c2)n(CC2CCCC2)c(=O)[nH]c1=O	0.14	222	0.056	222	1590	Active	10.5	inactive	3980	inactive	1	inactive	3.2	0.126	70.4		
CCc1c(Sc2cc(C)cc(C)c2)n(CCC2C=CCC2)c(=O)[nH]c1=O (stereo not given)	0.03	6.25	0.01	5.7	192	Active	> 270	inactive	641	inactive	1	inactive	0.6	0.128	10		
Cc1cc(C)cc(Oc2c(C(C)C)c(=O)[nH]c(=O)n2CC2=CCCC2)c1	0.18	20.5	0.001	16.4	116	Active	2.2	inactive	23500	inactive	1	inactive	0.5	0.032	32.2		
CCc1c(Oc2cc(C)cc(C)c2)n(CC2CCCC2)c(=O)[nH]c1=O	0.23	20.9	0.015	20.2	89	Active	0.272	inactive	1450	inactive	1	inactive	2.9	0.137	7		
CCc1c(Sc2cc(C)cc(C)c2)n(CC2CC2)c(=O)[nH]c1=O	0.009	14.4	0.0008	7.6	1580	Active	0.257	inactive	25500	inactive	1	inactive	0.1	0.018	62.5		
Cc1cc(C)cc(Oc2c(C(C)C)c(=O)[nH]c(=O)n2CCC2CC=CC2)c1	2.24	14.2	0.02	10.3	6	Active	2.3	inactive	918	inactive	1	inactive	1.4	0.176	7.3		
CCc1c(C(=O)c2cc(C)cc(C)c2)n(Cc2ccccc2)c(=O)[nH]c1=O	0.05	562	0.016	24.6	10200	Active	2.3	inactive	68300	inactive	1	inactive	0.4	0.025	59.3		
CCc1c(Oc2cc(C)cc(C)c2)n(CCC2CC=CC2)c(=O)[nH]c1=O	1.95	1110	0.23	1100	570	Active	9.8	inactive	4870	inactive	1	inactive	1.5	1.14	> 734		
Cc1cc(C)cc(Sc2c(C(C)C)c(=O)[nH]c(=O)n2CCC2=CCCC2)c1	0.011	21.6	0.94	19.3	1990	Active	> 260	inactive	26	inactive	1	inactive		2.36		Not Active	Not Active
CCc1c(Sc2cc(C)cc(C)c2)n(CC2CC=CC2)c(=O)[nH]c1=O	0.26	38.9	0.0066	18.3	148	Active	2.4	inactive	9060	inactive	1	inactive	0.5	0.21	38.2		
Cc1cc(C)cc(Sc2c(C(C)C)c(=O)[nH]c(=O)n2CC2CC2)c1	0.009	10.3	0.0003	7.8	1180	Active	1.47	inactive	37600	inactive	1	inactive	0.5	0.003	16.9		
Cc1cc(C)cc(Sc2c(C(C)C)c(=O)[nH]c(=O)n2CCC2CC=CC2)c1	0.08	14.2	0.002	12.8	173	Active	149	inactive	6530	inactive	1	inactive	6.2	0.254	2.5		
Cc1cc(C)cc(Oc2c(C(C)C)c(=O)[nH]c(=O)n2CC2CCCCC2)c1	0.84	34.4	0.0049	13.2	41	Active	11.9	inactive	11400	inactive	1	inactive	1.6	0.143	8.4		
Cc1cc(C)cc(C(=O)c2c(C(C)C)c(=O)[nH]c(=O)n2CCC2CCCC2)c1	0.014	20.6	0.02	17.3	1460	Active	2.6	inactive	1180	inactive	1	inactive		0.065		Not Active	Not Active
CC(C)c1c(C(=O)c2ccccc2)n(CC2CC=CC2)c(=O)[nH]c1=O	0.8	1180	0.0059	1180	1480	Active	> 295	inactive	200000	inactive	1	inactive	18.1	0.18	> 65.5		
